# Results: patent EP0057141A2, “Esters of halogene-biphenylcarboxylates, method of preparation and their application as medicines” (PIERRE FABRE S.A., priority 1981, dated 1982)
# Assay: Solubility in water and solvents
# Format: physicochemical
# Conditions: for Solubilités : éthanol: ethanol; for Solubilités : propylène glycol: propylene glycol; for Solubilités : eau: result in words
SMILES,Solubilités : diméthyl sulfoxyde (DMSO),Solubilités : éthanol,Solubilités : propylène glycol,Solubilités : eau (water),"solubility (water, read-out: Solubilités : eau)",Solubilités : DMA (DMA)
"CC1CC(OC(=O)c2ccc(-c3ccccc3Cl)cc2)CC(C)(C)C1 (stereo not drawn) [Exemple 5, chloro-2^1 biphényl-4 carboxylatede triméthyl-3-3-5 clohexyle]",20%,2%,"0,1%",insoluble,,
"CCCCCCCCOC(=O)c1ccc(-c2ccccc2Cl)cc1 [Exemple 3, chloro-2' biphényl-4 carboxylate de n-octyle]",20%,5%,"0,1%",insoluble,,
"O=C(OCc1cccnc1)c1ccc(-c2ccccc2Cl)cc1 [Exemple 10, chloro-2' biphényl-4 carboxylate de pyridyl-3 méthyle, chlorhydrate]",12%,,"0,1%",insoluble,,
"CC(C)OC(=O)c1ccc(-c2ccccc2Cl)cc1 [Exemple 2, chloro-2' biphényl-4 carboxylate d'isopropyle]",10%,2%,1%,insoluble,,
"O=C(OCc1ccccc1)c1ccc(-c2ccccc2Cl)cc1 [Exemple 6, chloro-2' biphényl-4 carboxylate de benzyle]",20%,2%,"0,2%",Insoluble,,
"CCOC(=O)c1ccc(-c2ccccc2Cl)cc1 [Exemple 1, chloro-2' biphényl-4 carboxylate d'éthyle]",20%,5%,1%,insoluble,,
"CN(C)CCOC(=O)c1ccc(-c2ccccc2Cl)cc1 [Exemple 9, chloro-2' biphényl-4 carboxylate de diméthylamino-2 éthyle, chlorhydrate]",12%,,,,100 mg/mL,
"CCCCCCCCCCCCCCCCOC(=O)c1ccc(-c2ccccc2Cl)cc1 [Exemple 4, chloro-2' biphényl-4 carboxylate de n-hexadecyle]","0,1%","0,5%","0,1%",insoluble,,1%
